Laboratory results taken from US20050261290A1, “Novel compounds of proline and morpholine derivatives” (priority 2004, published 2005).
Read-outs that look alike come from different tables or passages of the source.

Target: human 11b-hsd-1 (Homo sapiens, UniProt P28845)
Experiment: Inhibition constant Ki of human 11b-hsd-1 (3H-cortisone to 3H-cortisol conversion, HPLC)
Format: biochemical
Conditions: for Ki: apparent Ki, read-out: Ki app
Experimental: In each well, varying amounts of compounds are incubated with a fixed amount of 11b-hsd-1 (4 nM) and NADPH (500 μM) for 30 to 40 min at room temperature in the assay buffer. The enzyme concentration was determined by titration using reversible tight-binding inhibitors. […] The area of 3H-cortisol is calculated and plotted versus time to determine a linear velocity. […] Where vi, and vo are the rates of cortisol formation in the presence and in the absence of inhibitor, respectively, I is the inhibitor concentration and E is the 11 b-hsd-1 concentration in the assay buffer. […] NADPH, Glucose-6-Phosphate (G6P), and Glucose-6-Phosphate dehydrogenase was purchased from Sigma.

Chain of human 11b-hsd-1 (P28845 whole entry): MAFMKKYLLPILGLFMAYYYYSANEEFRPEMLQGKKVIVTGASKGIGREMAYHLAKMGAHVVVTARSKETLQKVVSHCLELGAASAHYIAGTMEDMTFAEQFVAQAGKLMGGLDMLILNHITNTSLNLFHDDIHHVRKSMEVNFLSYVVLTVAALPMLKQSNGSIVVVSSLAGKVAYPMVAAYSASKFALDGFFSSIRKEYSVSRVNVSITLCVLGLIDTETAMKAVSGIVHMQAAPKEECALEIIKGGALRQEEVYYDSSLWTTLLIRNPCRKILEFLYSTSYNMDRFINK

| SMILES | inhibition at 0.1 µM (0.1 μM compound) | Ki | Ki (human 11b-hsd-1) | inhibition at 0.1 µM (compound at 0.1 μM) |
| --- | --- | --- | --- | --- |
| CC(C)CN1CCC[C@@H]1C(=O)NCc1cccc(F)c1 [Example 237] | 100% | 10.3 nM |  |  |
| O=C(NCc1ccccc1)[C@H]1CCCN1CC1CCCCC1 [Example 3, N-benzyl-1-(cyclohexylmethyl)-D-prolinamide] |  |  | 15 nM | 92% |
| O=C(NC1C2CC3CC(C2)CC1C3)[C@@H]1NCC[C@H]1c1ccccc1 (stereo partly drawn) [Example 340] | 100% | 5.2 nM |  |  |
| O=C(NCc1cccc(F)c1)[C@H]1CCCN1CC1CCCC1 [Example 240] | 76.3% | 44 nM |  |  |
| O=C(NC1C2CC3CC(C2)CC1C3)[C@H]1CCCN1CC1CCOC1 (stereo partly drawn) [Example 115] |  |  |  | 100% |
| O=C(NCc1ccccc1)[C@@H]1CCCN1CC1CCCCC1 [Example 5, N-benzyl-1-(cyclohexylmethyl)-L-prolinamide] |  |  |  | 29% |
| Cc1ccccc1CNC(=O)[C@H]1CCCN1Cc1ccc(C#N)cc1 [Example 252] | 82.6% | 52 nM |  |  |
| COc1ccccc1CNC(=O)[C@H]1CCCN1Cc1cccc(Cl)c1 [Example 266] | 77.9% | 57 nM |  |  |
| CCN1CCCC[C@@H]1C(=O)NC12CC3CC(CC(C3)C1)C2 [Example 12] |  |  | 14 nM | 89% |
| CCN1CCC[C@H](C(=O)NC2C3CC4CC(C3)CC2C4)C1 (stereo partly drawn) [Example 124] |  |  |  | 100% |
| O=C(NC1C2CC3CC(C2)CC1C3)[C@@H]1C[C@H](Oc2cc(F)ccc2F)CN1 (stereo partly drawn) [Example 352] | 100% | 1 nM |  |  |
| O=C(NC1C2CC3CC(C2)CC1C3)[C@H]1C[C@@H](O)CN1Cc1ccc(F)cc1 (stereo partly drawn) [Example 27] |  |  | 1.1 nM | 100% |
| O=C(NC12CC3CC(CC(C3)C1)C2)[C@H]1CCCC[C@H]1NCc1ccc(Cl)cc1 (racemic) [Example 201] | 100% | 5.9 nM |  |  |
| CC(C)CN1CCC[C@@H]1C(=O)NC1Cc2ccccc2C1 [Example 289] | 100% | 1.2 nM |  |  |
| O=C(NC12CC3CC(CC(C3)C1)C2)C1COCCN1CC1CCCCC1 (stereo not drawn) [Example 181] |  |  | 1.8 nM | 100% |
| O=C(NC1C2CC3CC(C2)CC1C3)[C@H]1CCCN1C[C@H]1CCCN1 (stereo partly drawn) [Example 138] |  |  |  | 100% |
| CN(C)CCN1CCC[C@@H]1C(=O)NC1C2CC3CC(C2)CC1C3 (stereo partly drawn) [Example 107] |  |  | 2 nM | 100% |
| O=C(NC12CC3CC(CC(C3)C1)C2)[C@H]1CCCN1Cc1ccc(Cl)cc1 [Example 10] |  |  | 0.85 nM | 100% |
| CC1(C(=O)NC2CCCCC2)CCCN1Cc1ccc(C#N)cc1 (stereo not drawn) [Example 59] |  |  | 22 nM | 71% |
| N#Cc1ccc(CN2CCC[C@@H]2C(=O)NC23CC4CC(CC(C4)C2)C3)cc1 [Example 254] | 100% | 1 nM |  |  |
| CCCN1CCC[C@@H]1C(=O)NC1(C)CCCCC1 [Example 104] |  |  | 6 nM | 100% |
| CC(C)CN1CCC[C@@H]1C(=O)N[C@H]1c2ccccc2C[C@H]1O [Example 288] | 99.1% | 5.51 nM |  |  |
| CN(C(=O)[C@H]1CSCN1Cc1ccc(Cl)cc1)C1CCCCC1 [Example 194] | 86.2% | 25 nM |  |  |
| O=C(NCc1ccc(F)cc1)[C@H]1CCCN1CC1CCCC1 [Example 228] | 89.3% | 54 nM |  |  |
| N#Cc1cccc(CN2CCOCC2C(=O)NC23CC4CC(CC(C4)C2)C3)c1 (stereo not drawn) [Example 179] |  |  | 2 nM | 100% |
| CC(C)(C)OC(=O)N1CCCC(C(=O)Nc2ccc3ncccc3n2)C1 (stereo not drawn) [Example 164] |  |  |  | 11% |
| O=C(NC12CC3CC(CC(C3)C1)C2)[C@H]1CSCN1Cc1ccc(Cl)cc1 [Example 202] | 100% | 4.8 nM |  |  |
| N#Cc1ccc(CN2CCC[C@@H]2C(=O)N[C@@H]2CCc3ccccc32)cc1 [Example 285] | 100% | 7.82 nM |  |  |
